The values below come from patent publication US12440473B2 (priority 2019, dated 2025).

Where two headings read alike, the source gives them in different places. A value given as a limit tells only on which side of the number the result lay.

The target in test [1] is T1, CB1 receptor (Homo sapiens, UniProt P21554). Particulars: for CB1-agonist maximum activity: positive control CP 55940 assigned 100% activity.
Description: (§1) Briefly, a variety of standardized and optimized functional assays were used to assess and compare the selected compounds' pharmacologic targets, including G protein-coupled receptors (ADORA2A, ADRA1A, ADRA2A, ADRB1, ADRB2, CB1, CB2, CCK1, D1, D2S, ETA, H1, H2, M1 M2, M3, OPRD1, OPRK1, OPRM1, 5HTR1A, 5HTR1B, 5HTR2A, 5HTR2B, AVPR1A), kinases (LCK, INSR, VEGFR2, ROCK1), transporters (DAT, NET, SERT), ion channels (GABAA, 5-HT3, CA1.2, HERG, KVLQT1/MINK, NA1.5, NMDAR1/2B, NACHR), nuclear receptors (AR, GR), and non-kinase enzymes (COX1, COX2, ACHE, MAO-A, PDE3A, PDE4D2). […] Maximum activity (%) was also determined based on comparisons with internal positive controls, which were assigned 100% activity.
The target of another test is T2, full length human PPAR-γ (Homo sapiens, UniProt P37231).
T2 construct: host or cells: Chinese hamster ovary (CHO) cell lines
T2 sequence (P37231 1-505): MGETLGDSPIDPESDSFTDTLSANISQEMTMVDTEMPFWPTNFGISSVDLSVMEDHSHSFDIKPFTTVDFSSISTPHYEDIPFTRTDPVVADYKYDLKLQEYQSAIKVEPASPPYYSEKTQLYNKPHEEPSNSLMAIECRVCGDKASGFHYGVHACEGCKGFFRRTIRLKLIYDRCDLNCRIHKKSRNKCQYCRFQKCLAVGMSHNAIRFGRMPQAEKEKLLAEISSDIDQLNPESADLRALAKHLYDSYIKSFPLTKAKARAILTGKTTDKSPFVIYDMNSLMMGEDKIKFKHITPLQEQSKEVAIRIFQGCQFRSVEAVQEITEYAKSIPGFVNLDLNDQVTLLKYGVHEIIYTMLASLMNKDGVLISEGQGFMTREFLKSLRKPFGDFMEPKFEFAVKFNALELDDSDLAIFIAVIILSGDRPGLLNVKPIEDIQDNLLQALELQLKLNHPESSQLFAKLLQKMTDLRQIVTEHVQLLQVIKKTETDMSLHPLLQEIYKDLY
Briefly: PathHunter NHR Protein Interaction assay, PPAR-γ agonist activity (CHO cells). It counts as cell-based. Particulars: for Emax: CHO, PPAR-gamma, free fatty acid form, normalized to control compound (Troglitazone), read-out: Maximum Response.

The target of another test is OPRM1 (Homo sapiens, UniProt P35372).
OPRM1, sequence (P35372 whole entry): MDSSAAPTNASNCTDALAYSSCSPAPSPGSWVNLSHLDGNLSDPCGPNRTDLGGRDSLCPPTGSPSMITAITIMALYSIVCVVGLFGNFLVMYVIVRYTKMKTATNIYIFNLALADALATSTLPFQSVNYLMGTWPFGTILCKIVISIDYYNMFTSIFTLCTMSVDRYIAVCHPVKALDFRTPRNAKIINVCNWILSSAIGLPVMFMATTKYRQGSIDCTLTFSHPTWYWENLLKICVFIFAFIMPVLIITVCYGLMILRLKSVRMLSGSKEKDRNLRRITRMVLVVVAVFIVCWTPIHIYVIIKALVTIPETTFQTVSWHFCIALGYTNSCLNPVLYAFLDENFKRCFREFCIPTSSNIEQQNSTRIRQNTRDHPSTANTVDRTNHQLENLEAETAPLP
Another test has as its target T3, full length human PPAR-α (Homo sapiens, UniProt Q07869).
T3 construct: host or cells: Chinese hamster ovary (CHO) cell lines
T3 sequence (Q07869 1-468): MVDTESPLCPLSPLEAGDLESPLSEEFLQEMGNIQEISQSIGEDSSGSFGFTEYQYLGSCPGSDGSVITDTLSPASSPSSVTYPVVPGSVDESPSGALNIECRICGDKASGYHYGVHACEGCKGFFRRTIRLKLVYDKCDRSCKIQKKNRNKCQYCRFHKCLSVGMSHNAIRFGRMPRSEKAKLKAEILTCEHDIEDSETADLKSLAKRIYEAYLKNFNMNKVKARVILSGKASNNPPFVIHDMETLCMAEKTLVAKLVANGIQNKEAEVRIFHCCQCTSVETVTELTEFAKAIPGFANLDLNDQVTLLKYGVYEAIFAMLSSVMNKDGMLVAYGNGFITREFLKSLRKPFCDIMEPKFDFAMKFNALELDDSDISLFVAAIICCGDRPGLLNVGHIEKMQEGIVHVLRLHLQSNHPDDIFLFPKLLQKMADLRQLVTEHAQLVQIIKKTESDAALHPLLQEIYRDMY
Description: PathHunter NHR Protein Interaction assay, PPAR-α agonist activity (CHO cells). The test is classed as cell-based. Particulars: for EC50: Table 5, read-out: Cell-Based PPAR Agonist Activity Half Maximal Effective Concentration (EC50) PPAR-α; for PPAR-α EC50 % improvement over FFA form: compared to free fatty acid form; for PPAR-α agonist maximum activity: text of Example 3; for Emax: CHO, PPAR-alpha, free fatty acid form, normalized to control compound (GW7647), read-out: Maximum Response.

Another test addresses T4, full length human PPAR-δ (Homo sapiens, UniProt Q03181).
T4 construct: host or cells: Chinese hamster ovary (CHO) cell lines
T4 sequence (Q03181 1-441): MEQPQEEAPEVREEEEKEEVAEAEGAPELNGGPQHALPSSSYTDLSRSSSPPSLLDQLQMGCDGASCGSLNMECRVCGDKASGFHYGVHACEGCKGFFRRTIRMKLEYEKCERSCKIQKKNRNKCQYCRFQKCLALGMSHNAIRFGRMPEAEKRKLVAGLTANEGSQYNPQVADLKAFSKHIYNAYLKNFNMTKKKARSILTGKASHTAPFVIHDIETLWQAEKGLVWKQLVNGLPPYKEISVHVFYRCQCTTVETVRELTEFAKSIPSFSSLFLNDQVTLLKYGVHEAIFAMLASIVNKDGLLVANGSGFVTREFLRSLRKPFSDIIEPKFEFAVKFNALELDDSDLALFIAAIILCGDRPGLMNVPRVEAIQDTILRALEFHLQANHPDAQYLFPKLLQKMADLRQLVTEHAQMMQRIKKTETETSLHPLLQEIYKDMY
Description: PathHunter NHR Protein Interaction assay, PPAR-δ agonist activity (CHO cells). Particulars: for PPAR-δ EC50 % improvement over FFA form: compared to free fatty acid form; for Emax: CHO, free fatty acid form, normalized to control compound (L-165,041), read-out: Maximum Response. It counts as cell-based.

Test [2] addresses T1, CB1 receptor. Description: cell-based.
Description: as §1
Test [3] has as its system G protein-coupled receptors, kinases, transporters, ion channels, nuclear receptors, non-kinase enzymes. Description: SAFETYscan E/IC50 ELECT panel, agonist and antagonist activities across 78 assays.
Description: as §1
A further test addresses cannabinoid receptor 1 (Homo sapiens, UniProt P21554). Briefly: Cannabinoid receptor 1 agonist activity (Example 4). Particulars: for % maximum activity compared to positive control (CP55940): cannabinoid receptor 1 agonist (Table 6).
The next test has as its system diet-induced obese mice. Description: Diet-induced obese mice on high fat diet, daily oral gavage for 12 weeks. Particulars: for Cholesterol / Glucose: Results (Day 84), 6 h fasted samples.

cannabinoid receptor 1, sequence (P21554 whole entry, species assumed): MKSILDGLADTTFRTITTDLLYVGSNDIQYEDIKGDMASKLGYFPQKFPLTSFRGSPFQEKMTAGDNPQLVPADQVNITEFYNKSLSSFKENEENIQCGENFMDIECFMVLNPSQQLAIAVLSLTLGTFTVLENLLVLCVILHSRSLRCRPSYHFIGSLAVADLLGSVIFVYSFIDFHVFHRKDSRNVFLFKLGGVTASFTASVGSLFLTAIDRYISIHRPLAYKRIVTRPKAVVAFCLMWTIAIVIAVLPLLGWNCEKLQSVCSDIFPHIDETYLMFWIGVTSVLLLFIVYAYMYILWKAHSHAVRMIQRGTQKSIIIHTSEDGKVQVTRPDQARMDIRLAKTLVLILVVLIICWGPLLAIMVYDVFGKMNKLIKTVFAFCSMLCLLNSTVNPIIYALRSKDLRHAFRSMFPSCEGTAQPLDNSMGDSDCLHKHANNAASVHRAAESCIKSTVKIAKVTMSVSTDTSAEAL
T1 sequence (P21554 whole entry): as the sequence (P21554 whole entry, species assumed) above
Description for OPRM1: as §1
Description for diet-induced obese mice: Forty C57BL/6J mice were fed a high fat diet (HFD) (D12492, 60% kcals fat) for 8 weeks. Study mice were then divided into the following four groups of ten: vehicle controls, low dose C17:0-treated (5 mg/kg body weight), high-dose C17:0-treated (50 mg/kg body weight), and low-dose C15:0-treated (5 mg/kg body weight).
“Results” values are based on 6 h fasted samples.
Description for full length human PPAR-α: (§2) PPAR-α, PPAR-δ, and PPAR-γ agonist activities were measured using PathHunter Nuclear Hormone Receptor (NHR) Protein Interaction (Pro) assays (DiscoverX, Freemont, California). Briefly, Chinese hamster ovary (CHO) cell lines were used to monitor the activation of PPAR-α, PPAR-δ, and PPAR-γ in a homogenous, non-imaging assay format using Enzyme Fragment Complementation (EFC). The NHR Pro assay was based on detection of protein-protein interactions between activated, full length PPAR-α, PPAR-δ, and PPAR-γ proteins and a nuclear fusion protein containing Steroid Receptor Co-activator Peptide (SRCP) domains with one or more canonical LXXLL interaction motifs. PPAR-α, PPAR-δ, and PPAR-γ were tagged with the ProLink component of the EFC assay system, and the SRCP domain was fused to the enzyme acceptor component (EA) expressed in the nucleus. When bound by ligand, PPAR-α, PPAR-δ, or PPAR-γ migrated to the nucleus and recruited the SRCP domain, whereby complementation occurred, generating a unit of active β-Galactosidase (β-Gal) and production of chemiluminescent signal. […] Percentage activity was calculated using the following formula: % Activity=100%×(mean RLU of test sample−mean RLU of vehicle control)/(mean MAX control ligand−mean RLU of vehicle control).
Description for full length human PPAR-γ: as §2
Description for full length human PPAR-δ: as §2

`CCCCCCCCCCCCCCc1nnn[nH]1` [1-tetrazole-C15:0] returned a CB1-agonist maximum activity on CB1 receptor [1] of 48.3%. The IC50 on CB1 receptor [1] (read-out: CB1-agonist activity IC50, ten-point concentration curves) was determined as 1300 nM; at OPRM1 (read-out: OPRM1 antagonist IC50, ten-point concentration curves) it was 3900 nM. Moreover, the EC50 at full length human PPAR-γ (Table 5, read-out: Cell-Based PPAR Agonist Activity Half Maximal Effective Concentration (EC50) PPAR-γ) is more than 100000 nM; on full length human PPAR-α, 2600 nM; at full length human PPAR-δ (Table 5, read-out: Cell-Based PPAR Agonist Activity Half Maximal Effective Concentration (EC50) PPAR-δ), 500 nM. Moreover, the “OPRM1 antagonist maximum activity” value at OPRM1 is reported as 46.2%. In addition, at full length human PPAR-α, the “PPAR-α EC50 % improvement over FFA form” value was 77%. Also, at full length human PPAR-α, the “PPAR-α agonist maximum activity” value was 32%. Moreover, the “PPAR-δ EC50 % improvement over FFA form” value on full length human PPAR-δ is listed as 81%. For the same molecule, the “PPAR-δ agonist maximum activity” value at full length human PPAR-δ (text of Example 3) is 18%.
In the case of `CCCCCCCCCCCCCC(CC)C(=O)O` (centres unmarked) [2-ethyl-C15:0, 2-ethylpentadecanoic acid], the EC50 on CB1 receptor [2] is 27 nM. This molecule also gave a CB1-agonist maximum activity at CB1 receptor [1] of 53.7%. In addition, the “PPAR-γ EC50 % improvement over FFA form” value on full length human PPAR-γ (compared to free fatty acid form) is on record as more than 49%. The PPAR-γ agonist activity result on full length human PPAR-γ (in words) is given as “acquired PPAR-γ agonist activity”. Moreover, on full length human PPAR-α, the “PPAR-α EC50 % improvement over FFA form” value was 90% and the “PPAR-α agonist maximum activity” value is 170%. In addition, at full length human PPAR-δ, the “PPAR-δ EC50 % improvement over FFA form” value is listed as 89%. Besides, the “PPAR-δ agonist maximum activity” value at full length human PPAR-δ (text of Example 3) came to 72.4%. The EC50 at full length human PPAR-δ (text of Example 3, read-out: PPAR-δ agonist EC50) came out at 28 nM.
Regarding `CCCCCCCCCCCCCC(C)C(=O)O` (centres unmarked) [2-methyl-C15:0, 2-methylpentadecanoic acid], the “additional activity across 78 assays” value in test [3] is recorded as “no additional activity was detected”.
Consider `CCCCCCCCCCCCOCC(=O)O` [3-oxa-C15:0, 2-(dodecyloxy)acetic acid], for which, on cannabinoid receptor 1, the EC50 is 570 nM and the “% maximum activity compared to positive control (CP55940)” value was 83%.
`CCCCCCCCCCCCCC(=O)O` [C14:0, myristic acid, reference compound]: on full length human PPAR-γ, the Emax amounted to 19%. Moreover, at full length human PPAR-α, the Emax came out at 74.1% and the EC50 was 8400 nM.
As to `CCCCCCCCCCCCCCC(=O)O` [C15:0, pentadecanoic acid], in test [3], the “additional activity across 78 assays” value is “no additional activity was detected”. The Emax on full length human PPAR-γ came to 7%; on full length human PPAR-α, 65.8%; on full length human PPAR-δ (PPAR-delta), 52.8%. Besides, the “metabolic syndrome (glucose, insulin, cholesterol, proinflammatory cytokines) compared to controls” value in the test with diet-induced obese mice (5 mg/kg, vs vehicle control group) was “attenuated metabolic syndrome”. The molecule further yielded a Cholesterol in the test with diet-induced obese mice (5 mg/kg daily oral) of 183 ± 25 mg/dL. Also, the Glucose in the test on diet-induced obese mice (5 mg/kg daily oral) amounted to 245 ± 37 mg/dL.
`CCCCCCCCCCCCCCCC(=O)O` [C16:0, palmitic acid, reference compound]: the Emax came to 4.7% at full length human PPAR-γ and 56.1% on full length human PPAR-α.
Take `CCCCCCCCCCCCCCCCC(=O)O` [C17:0, heptadecanoic acid]: the Emax on full length human PPAR-γ came out at 1%; at full length human PPAR-α, 16.7%; at full length human PPAR-δ (PPAR-delta) it was 39.8%. In addition, the EC50 on full length human PPAR-δ (PPAR-delta, free fatty acid form (Table 4), read-out: EC50) came out at 17400 nM. Also, the “metabolic syndrome compared to controls” value with diet-induced obese mice (C17:0 5 and 50 mg/kg, vs vehicle control group) was “trended toward attenuated metabolic syndrome”. For the same molecule, the Cholesterol with diet-induced obese mice (5 mg/kg daily oral) worked out at 197 ± 31 mg/dL; with diet-induced obese mice (50 mg/kg daily oral) it was 187 ± 44 mg/dL. For the same molecule, the values for the Glucose in the test with diet-induced obese mice (5 mg/kg daily oral) and in the test on diet-induced obese mice (50 mg/kg daily oral) were 296 ± 23 mg/dL and 282 ± 31 mg/dL, respectively. The “proinflammatory cytokines and chemokines (TNF-α and MCP-1) compared to controls” value in the test on diet-induced obese mice (high-dose 50 mg/kg, vs vehicle control group) is recorded as “significantly lower”.
Consider `CCCCCCCCCCCCCC(CC)(CC)C(=O)O` [diethyl-C15:0], for which, on cannabinoid receptor 1, the EC50 was 3300 nM and the “% maximum activity compared to positive control (CP55940)” value came to 93%.
